From EP0726257A1, “1-(Hetero)Arylvinyl-5H-2,3-benzodiazepine derivatives useful for the treatment of central nervous system disorders, and benzopyrylium intermediates for their preparation” (EGIS GYOGYSZERGYAR RT., priority 1995, dated 1996)
Read-outs that look alike come from different tables or passages of the source.

Legend:
[1] = tested on: spontaneous motor activity (SMA) in mice; experiment: Behavioural effects according to Irwin (decrease in spontaneous motor activity); type: in vivo; design: key: ++ strong; + moderate; +- slight decrease in spon-taneous motor activity [SMA]
Description: (§1) The behavioural effects of 1-[2'-(substituted) vinyl]-5H-2,3-benzodiazepine derivatives according to the invention and of reference substances were measured according to the method of Irwin (Psychopharmacology, 13, 222 [1968]). The results and the acute toxicity data (dead/treated animals, shown in brackets) can be seen in the following Table II
(§2) From the above Table II it can be taken that the 1-[2'-(substituted) vinyl]-5H-2,3-benzodiazepine derivatives according to the invention considerably decrease the spontaneous motor activity (SMA) in mice after intraperitoneal or oral administration.

[2] = tested on: mice; experiment: Acute toxicity (dead/treated animals) in the Irwin test; type: in vivo
Description: as §1, §2

[3] = biological target: homophthalazine binding site; experiment: Displacement of 3H-girisopam from the homophthalazine binding site in rat brain striatal membrane preparation; settings: displacing 5 nM 3H-girisopam
Description: Ki values were calculated according to the following equation: Ki = IC50 :(1 +([L])/(KD)), [formula] wherein KD is the dissociation constant of the labelled ligand-receptor complex, [L] is the concentration of the labelled ligand and IC50 is the half maximal inhibitory concentration of the test compound.

[4] = tested on: Catalepsy in mice; experiment: Cataleptic effect in mice (Schlichtegroll); type: in vivo; settings: p.o.
Description: (§3) The cataleptic effect of the compounds was measured both in mice (Schlichtegroll: Arzneim. Forsch., 8, 489, [1958]) and in rats (Morpurgo: Arch. Int. Pharmacodyn., 137, 87, [1962]).

[5] = tested on: Catalepsy in rats; experiment: Cataleptic effect in rats (Morpurgo); type: in vivo; settings: p.o.
Description: as §3

[6] = tested on: rats; experiment: Elevated plus-maze test (Pellow), anxiolytic activity; type: in vivo; settings: Rattus norvegicus, po, 1 h; p.o., elevated plus maze, Sprague Dawley rats, 60 minutes pretreatment, significant increase of time spent on open arms; read-out: Minimum effective dose
Source text: The anxiolytic activity was studied in rats according to the "lick-conflict" test elaborated by Vogel et al. (Psychopharmacology, 21, 1, [1971] and the elevated plus-maze test described by Pellow (Pellow, J.: Neurosci. Meth. 14, 149, [1985]). The antiaggressive effect was investigated in mice using the "fighting behaviour" method of Tedeschi (J. Pharm. Exp. Ther., 125, 28, [1959]). The minimal effective dose (MED) values and the ED50 values obtained are shown in the following Table V.
The anxiolytic activity of these compounds was investigated in the elevated plus maze test. Male rats belonging to the Sprague Dawley strain and weighing 220 to 260 g were used as test animals. The test was carried out with the aid of a wooden plus-shaped maze elevated to a height of 50 cm and containing two enclosed and two open arms (50 cm long and 15 cm wide). After 60 minutes pretreatment the animals were placed into the maze and observed for 5 minutes. The drug effect was expressed as percent increase of the time spent on the open arms and number of open arm entries. The minimum effective dose (MED) which caused a significant increase of the time spent on the open arms was calculated for every substance [Pelow, S., Chopin, P., File, S.E., Briley, M.: J. Neurosci. Methods 14, 149 to 167 [1985]).

[7] = tested on: spontaneous motor activity of mice; experiment: Inhibition of spontaneous motor activity according to Borsy et al.; type: in vivo; settings: Mus musculus, po, 0.5 h
Description: The potential antipsychotic activity of 1-[2'-(substituted) vinyl]-5H-2,3-benzodiazepine derivatives according to the invention and of reference substances was tested according to the method of Puech et al. (Psychopharmacology, 75, 84, [1981] by measuring their inhibiting effect on the "climbing" reaction induced by 5,6,6a,7-tetra-(hydro)-6-(methyl)-4H-dibenzo[de,g]quinoline-10,11-di-(ol){apomorphine}. The results have been expressed as ED50 values. Since the inhibition of the spontaneous motor activity (SMA) is an important characteristic of the antipsychotic drugs, the ED50 values of a number of compounds were determined according to the method of Borsy et al. (Arch. Int. Pharmacodyn., 124, 1, 196).
The effect of the 1-[2'-(substituted) vinyl]-5H-2,3-benzodiazepine derivatives according to the invention on the spontaneous motor activity was tested according to the method of Borsy et al. Groups consisting of 3 mice were treated orally with different doses of the compounds to be tested. Then the animals were placed into a 10-channel Dews system equipment, wherein the number of interruptions of infrared beam within 30 minutes was counted. […]

[8] = p.o., mice, interruptions of infrared beam within 30 minutes, read-out: ID50 (the source's name)

SMILES	Behaviour ([1]; 300 mg/kg i.p.)	Behaviour ([1]; 1000 mg/kg p.o.)	acute toxicity (dead/treated animals) ([2]; 300 mg/kg i.p.)	acute toxicity (dead/treated animals) ([2]; 1000 mg/kg p.o.)	Ki [3] [nM]	also measured
COc1cc2c(cc1OC)C(C=Cc1ccc(OC)c(C(C)C)c1)=NN=C(C)C2 [Example 40]	+ +	+ +	0/5	4/5		
COc1cc2c(cc1OC)C(C=Cc1ccc(Cl)c(N)c1)=NN=C(C)C2 [Example 77]	+ +	+ +	0/5	0/5	10	
COc1cc(OC)c(OC)cc1C=CC1=NN=C(C)Cc2cc(OC)c(OC)cc21 [Example 59]					16	
CCCc1cc(C=CC2=NN=C(C)Cc3cc(OC)c(OC)cc32)ccc1OC [Example 41]					16	
COc1ccc(C=CC2=NN=C(C)Cc3cc(OC)c(OC)cc32)cc1C [Example 14]					16	
COc1cc2c(cc1OC)C(C=Cc1cccc(Cl)c1)=NN=C(C)C2 [Example 51]	+	+ +	0/6	0/6	19	Catalepsy in mice Minimal effective dose [MED] [4]: 100 mg/kg; Catalepsy in rats Minimal effective dose [MED] [5]: >100 mg/kg
COc1cc2c(cc1OC)C(C=Cc1ccc3c(c1)OCO3)=NN=C(C)C2 [Example 67]	+-	+	0/6	0/6	5	Catalepsy in mice Minimal effective dose [MED] [4]: >100 mg/kg; Catalepsy in rats Minimal effective dose [MED] [5]: >100 mg/kg
CCC1C(C)=NN=C(C=Cc2ccc(N(C)C)cc2)c2cc(OC)c(OC)cc21 (stereo not shown) [Example 37]	+ +	+ +	0/5	4/5		
COc1cc2c(cc1OC)C(C=Cc1ccc(Cl)c(NC(C)=O)c1)=NN=C(C)C2 [Example 85, 1-[3'-(Acetylamino)-4-(chloro)-styryl]-4-[methyl]-7,8-di-[methoxy]-5H-2,3-benzodiazepine]	+-	+	0/5	0/5	14	
COc1cc2c(cc1OC)C(C=Cc1ccccc1Cl)=NN=C(C)C2 [Example 54]	+	+	2/5	2/5		
CC1Cc2cc3c(cc2C(C=Cc2ccc(F)cc2)=NN1)OCO3 (stereo not shown) [Example 92, 1-[4'-(Fluoro)-styryl]-4-[methyl]-7,8-[methylenedioxy]-3,4-di-[hydro]-5H-2,3-benzodiazepine]						minimal effective dose [6]: 1 mg/kg
CC1=NN=C(C=Cc2cccc(F)c2)c2cc3c(cc2C1)OCO3 [Example 89, 1-[3'-(Fluoro)-styryl]-4-[methyl]-7,8-[methylenedioxy]-5H-2,3-benzodiazepine]						minimal effective dose [6]: 0.3 mg/kg
COc1cc2c(cc1OC)C(C=Cc1ccccc1Br)=NN=C(C)C2 [Example 36]					10	
CC1=NN=C(C=Cc2ccccc2F)c2cc3c(cc2C1)OCO3 [Example 90, 1-[2'-(Fluoro)-styryl)-4-[methyl]-7,8-[methylenedioxy]-5H-2,3-benzodiazepine]						minimal effective dose [6]: 0.3 mg/kg
COc1cc2c(cc1OC)C(C=Cc1cccc(N)c1)=NN=C(C)C2 [Example 74]					14	
COc1cc2c(cc1OC)C(C=Cc1c[nH]c3ccccc13)=NN=C(C)C2 [Example 71]					5	
COc1cc2c(cc1OC)C(C=Cc1ccccc1C)=NN=C(C)C2 [Example 42]	+ +	+ +	0/5	0/5	11	
CCC1C(C)=NN=C(C=Cc2cccc(Cl)c2)c2cc(OC)c(OC)cc21 (stereo not shown) [Example 48]	+	+-	0/5	0/5	19	

SMILES	Behaviour ([1]; 300 mg/kg i.p.)	Behaviour ([1]; 1000 mg/kg p.o.)	acute toxicity (dead/treated animals) ([2]; 300 mg/kg i.p.)	acute toxicity (dead/treated animals) ([2]; 1000 mg/kg p.o.)	Ki [3] [nM]	also measured
CC1=NN=C(C=Cc2ccc(F)cc2)c2c(ccc3c2OCO3)C1 [Example 91, 1-[4'-(Fluoro)-styryl]-4-[methyl]-8,9-[methylenedioxy]-5H-2,3-benzodiazepine]						ED50 [7, 8]: > 100 mg/kg
CC1=NN=C(C=Cc2ccc(C(F)(F)F)cc2)c2cc3c(cc2C1)OCO3 [Example 87, 1-[4'-(Trifluoromethyl)-styryl]-4-[methyl]-7,8-[methylenedioxy]-5H-2,3-benzodiazepine]						ED50 [7, 8]: > 100 mg/kg; minimal effective dose [6]: 0.1 mg/kg
CC1=NN=C(C=Cc2ccc(F)cc2)c2cc3c(cc2C1)OCO3 [Example 86, 1-[4'-(Fluoro)-styryl]-4-[methyl]-7,8-[methylenedioxy]-5H-2,3-benzodiazepine]						ED50 [7, 8]: > 100 mg/kg; minimal effective dose [6]: 0.003 mg/kg
COc1cc2c(cc1OC)C(C=Cc1ccc3c(c1OC)OCO3)=NN=C(C)C2 [Example 21]					8	Catalepsy in mice Minimal effective dose [MED] [4]: >100 mg/kg; Catalepsy in rats Minimal effective dose [MED] [5]: >100 mg/kg
COc1cc2c(cc1OC)C(C=Cc1ccc(OC(C)C)cc1)=NN=C(C)C2 [Example 15]					13	
CCN(CC)c1ccc(C=CC2=NN=C(C)Cc3cc(OC)c(OC)cc32)cc1 [Example 49]	+ +	+ +	0/5	3/5	10	
COc1cc2c(cc1OC)C(C=Cc1ccccc1OC(C)C)=NN=C(C)C2 [Example 18]					18	
COc1cc2c(cc1OC)C(C=Cc1ccc([N+](=O)[O-])cc1)=NN=C(C)C2 [Example 12]					17	
COc1cc2c(cc1OC)C(C=Cc1ccc(C(F)(F)F)cc1)=NN=C(C)C2 [Example 45]					15	
COc1ccc(C=CC2=NN=C(C)Cc3cc(OC)c(OC)cc32)cc1 [Example 9]					18	
COc1cc2c(cc1OC)C(C=Cc1ccc(F)cc1)=NN=C(C)C2 [Example 28]					12	
COc1cc2c(cc1OC)C(C=Cc1cccc(OC(C)C)c1)=NN=C(C)C2 [Example 16]					11	
COc1ccc(C=CC2=NN=C(C)Cc3cc(OC)c(OC)cc32)cc1Cl [Example 55]					11	
COc1cc(OC)c(C=CC2=NN=C(C)Cc3cc(OC)c(OC)cc32)c(OC)c1 [Example 58]	+	+ +	0/5	0/5	19	
CN1C(=O)CN=C(c2ccccc2)c2cc(Cl)ccc21 [diazepam, 7-(chloro)-2,3-di-(hydro)-1-(methyl)-5-(phenyl)-1H-1,4-benzodiazepin-2-(one), reference compound]						ED50 ([7]; read-out: ID50): 23 mg/kg
COc1cc2c(cc1OC)C(C=Cc1ccccc1)=NN=C(C)C2 [Example 33]					12	
CC1=NN=C(C=Cc2ccc(C#N)cc2)c2cc3c(cc2C1)OCO3 [Example 88, 1-[4'-(Cyano)-styryl]-4-[methyl]-7,8-[methylenedioxy]-5H-2,3-benzodiazepine]						ED50 [7, 8]: > 100 mg/kg
CCC1C(C)=NN=C(C=Cc2ccc(OC)c(OC)c2)c2cc(OC)c(OC)cc21 (stereo not shown) [Example 64]	+	+-	0/5	0/5		
